Measured values reported in patent US20040248769A1, “Enzyme inhibitors for inactivating allergens” (priority 2001, published 2004).
Values joined by “and” are separate entries in the source; they are usually repeats but may differ in a detail not shown here. Equal entries are not always repeated. *1 amine or outer side, *2 acyl side, *3 side chain or, on linkers, in order; H or OH if unused. Where a SMILES comes first, the peptide text is derived from it. The star is where a group is joined. AMC = Cc1cc(=O)oc2cc(N*)ccc12; Suc = O=C(CCC(=O)[*:2])[*:1]; Cbz = O=C(OCc1ccccc1)*; Bz = O=C(c1ccccc1)*

Assays:
[1] = tested on: Cat1 S3 fur extract proteolytic activity; assay: Inhibition of the proteolytic activity in animal fur by proteinase inhibitors; assay type: biochemical, cat; details: Cat1 S3, 10 μM inhibitor
Protocol: (§1) […] The assay was begun with substrate and sample and a continuous rate of product formation (nM/min) was measured (v0) for 15 min. The inhibitor was added to a final concentration of 10 μM in negligible volume from stock solution in dimethyl sulfoxide. The assay was continued for a further 15 min.
(§2) Under these conditions reversible inhibition can be measured as the new steady state (v1) with percentage inhibition being 1−(v1/v0)×100. Irreversible inhibition is measured as a second order rate constant and is time dependent but as long as the inhibitor is present in molar excess should always lead eventually to total inhibition. No distinction was made and inhibition is presented as a percentage of full activity. See results table 4.

[2] = tested on: G.pig2 S1 fur extract proteolytic activity; assay: as above; assay type: biochemical, guinea pig; details: G.pig2 S1, 10 μM inhibitor, substrate 2 Z-Phe-Arg-NHMec
Protocol: as §1, §2

[3] = tested on: Horse1 S1 mane extract proteolytic activity; assay: as above; assay type: biochemical, horse; details: Horse1 S1, 10 μM inhibitor, substrate 2 Z-Phe-Arg-NHMec
Protocol: as §1, §2

[4] = tested on: Horse1 S2 fur extract proteolytic activity; assay: as above; assay type: biochemical, horse; details: Horse1 S2, 10 μM inhibitor, substrate 2 Z-Phe-Arg-NHMec
Protocol: as §1, §2

[5] = tested on: Dog2 S1 fur extract proteolytic activity; assay: as above; assay type: biochemical, dog; details: Dog2 S1, 10 μM inhibitor, substrate 2 Z-Phe-Arg-NHMec
Protocol: as §1, §2

[6] = tested on: Cat1 S1 fur extract proteolytic activity; assay: Proteolytic activity of fur extract against NHMec substrates; assay type: biochemical, cat; details: sample Cat1 S1, 5 μM substrate, 37° C., pH 7.5
Protocol: (§3) A clean pet brush was used to brush three common English domestic cats. Fur from guinea pigs, rabbit, dogs and horse was collected in the same way. A different brush was used for each species and between brushings these were cleaned thoroughly in a denaturing detergent solution (Fairy® detergent) and then ethanol. The brushings were transferred to a sterile universal container and extracted by shaking in an extraction buffer, 50 mM Tris.HCl, 5 mM CaCl2, pH 7.5 (0.1 g/ml). The solution was recovered by centrifugation and stored at −20° C. in aliquots. Saliva was collected from a mastiff-type dog and stored frozen in aliquots until assayed. Sample aliquots were assayed for proteolytic activity using fluorometric blocked peptidylaminomethylcoumarylamide substrates in the cuvette of a Perkin Elmer fluorimeter at 37° C. The fluorimeter was standardised with a known concentration of methylcoumarin, and the assays were designed so that no more than 10% substrate hydrolysis occurred.
(§4) Assays were performed in assay buffer; 50 mM Tris.HCl, 5 mM CaCl2, 0.1% CHAPS, pH 7.5. Data were collected in real-time on a personal computer using the Flusys software package.
(§5) In the first series of experiments the sample (12 μl) was assayed against a range of serine and cysteine proteinase aminomethylcoumarylamide (NHMec) substrates (obtained commercially from Bachem) under standard conditions of 5 μM substrate concentration (from a 100-fold stock solution in dimethyl sulfoxide) to give a final volume of 120 μl. After addition of substrate the rate without sample was determined (which in all cases was zero), after which the sample was applied and the progress of the reaction was followed for a further 15 min. The slope obtained (fluorescence vs time) was analysed by linear regression and converted to rate of product formation (nM/min) see results table 2.

[7] = tested on: Cat2 S1 fur extract proteolytic activity; assay: as above; assay type: biochemical, cat; details: sample Cat2 S1, 5 μM substrate, 37° C., pH 7.5
Protocol: as §3, §4, §5

cat fur enzyme(s) = assay: Rates of cleavage at varying substrate concentration and Km; assay type: biochemical; details: for Rate: cat fur sample; for Km: non-linear regression, Enzfitter, rough estimate
Protocol: as §5
A rough estimate of the Km for the cleavage of Z-Gly-Gly-Arg-NHMec and of Z-Phe-Arg-NHMec by the cat fur enzyme(s) were determined using the same procedure with varying concentrations of these substrates see results table 3.
As the activity follows normal Michaelis-Menten kinetics it is clear that it is due to the activity of one or more biological catalysts or enzymes.

[8] = tested on: Cat1 S3 fur extract proteolytic activity; assay: Proteolytic activity of fur extract against NHMec substrates; assay type: biochemical, cat; details: sample Cat1 S3, 5 μM substrate, 37° C., pH 7.5
Protocol: as §3, §4, §5

[9] = tested on: Cat3 S1 fur extract proteolytic activity; assay: as above; assay type: biochemical, cat; details: sample Cat3 S1, 5 μM substrate, 37° C., pH 7.5
Protocol: as §3, §4, §5

[10] = tested on: Rabbit1 S1 fur extract proteolytic activity; assay: as above; assay type: biochemical, rabbit; details: sample Rabbit1 S1, 5 μM substrate, 37° C., pH 7.5
Protocol: as §3, with “Sample aliquots were assayed for proteolytic activity using fluorometric blocked peptidylaminomethylcoumarylamide substrates in the cuvette of a Perkin Elmer fluorimeter at 37° C. The fluorimeter was standardised with a known concentration of methylcoumarin, and the assays were designed so that no more than 10% substrate hydrolysis occurred.” left out
as §5

[11] = tested on: Dog1 S1 fur extract proteolytic activity; assay: as above; assay type: biochemical, dog; details: sample Dog1 S1 (fur), 5 μM substrate, 37° C., pH 7.5
Protocol: as §3, with “Sample aliquots were assayed for proteolytic activity using fluorometric blocked peptidylaminomethylcoumarylamide substrates in the cuvette of a Perkin Elmer fluorimeter at 37° C. The fluorimeter was standardised with a known concentration of methylcoumarin, and the assays were designed so that no more than 10% substrate hydrolysis occurred.” left out
as §5

[12] = tested on: Dog1 S2 saliva proteolytic activity; assay: Proteolytic activity of saliva against NHMec substrates; assay type: biochemical, dog; details: sample Dog1 S2 (saliva), 5 μM substrate, 37° C., pH 7.5
Protocol: as §3, with “Sample aliquots were assayed for proteolytic activity using fluorometric blocked peptidylaminomethylcoumarylamide substrates in the cuvette of a Perkin Elmer fluorimeter at 37° C. The fluorimeter was standardised with a known concentration of methylcoumarin, and the assays were designed so that no more than 10% substrate hydrolysis occurred.” left out
as §5

[13] = tested on: G. pig1 S1 fur extract proteolytic activity; assay: Proteolytic activity of fur extract against NHMec substrates; assay type: biochemical, guinea pig; details: sample G. pig1 S1, 5 μM substrate, 37° C., pH 7.5
Protocol: as §3, with “Sample aliquots were assayed for proteolytic activity using fluorometric blocked peptidylaminomethylcoumarylamide substrates in the cuvette of a Perkin Elmer fluorimeter at 37° C. The fluorimeter was standardised with a known concentration of methylcoumarin, and the assays were designed so that no more than 10% substrate hydrolysis occurred.” left out
as §5

[14] = tested on: G. pig2 S1 fur extract proteolytic activity; assay: as above; assay type: biochemical, guinea pig; details: sample G. pig2 S1, 5 μM substrate, 37° C., pH 7.5
Protocol: as §3, with “Sample aliquots were assayed for proteolytic activity using fluorometric blocked peptidylaminomethylcoumarylamide substrates in the cuvette of a Perkin Elmer fluorimeter at 37° C. The fluorimeter was standardised with a known concentration of methylcoumarin, and the assays were designed so that no more than 10% substrate hydrolysis occurred.” left out
as §5

[15] = substrate 1 Z-Gly-Gly-Arg-NHMec

## N=C(N)SCCCOc1oc(=O)c2cc(N)ccc2c1Cl [ACITIC, 7-amino-4-chloro-3-(-3-isothiureido-propoxy) isocoumarin]
[1]; [15]
  % Inhibition: 100%
  v1 (rate after inhibitor): 0.002 nM/min
[2]
  % Inhibition: 94.8%
  v1 (rate after inhibitor): 0.964 nM/min
[3]
  % Inhibition: 100%
  v1 (rate after inhibitor): 0 nM/min
[4]
  % Inhibition: 100%
  v1 (rate after inhibitor): 0 nM/min
[5]
  % Inhibition: 71.2%
  v1 (rate after inhibitor): 0.184 nM/min

## Cc1cc(=O)oc2cc(NC(=O)[C@H](CCCCN)NC(=O)[C@H](Cc3ccccc3)NC(=O)[C@H](C)NC(=O)CCC(=O)O)ccc12 [Suc-Ala-Phe-Lys-NHMec] (Suc-Ala-Phe-Lys-{AMC})
[6]
  Rate: No activity
[7]
  Rate: No activity

## Cc1cc(=O)oc2cc(NC(=O)[C@H](CCCN=C(N)N)NC(=O)CNC(=O)CNC(=O)OCc3ccccc3)ccc12 [Z-Gly-Gly-Arg-NHMec]
[6]
  Rate: 0.87 nM/min
[7]
  Rate: 1.35 nM/min
Cat fur enzyme(s); [Substrate] 5 μM
  Rate: 1.47 nM/min
Cat fur enzyme(s); [Substrate] 10 μM
  Rate: 2.42 nM/min
Cat fur enzyme(s); [Substrate] 20 μM
  Rate: 3.41 nM/min
Cat fur enzyme(s); [Substrate] 40 μM
  Rate: 4.82 nM/min and 8.84 nM/min
Cat fur enzyme(s); [Substrate] 60 μM
  Rate: 10.01 nM/min
Cat fur enzyme(s); [Substrate] 80 μM
  Rate: 13.27 nM/min
Cat fur enzyme(s); [Substrate] 100 μM
  Rate: 11.40 nM/min
Cat fur enzyme(s); [Substrate] 125 μM
  Rate: 13.49 nM/min
Cat fur enzyme(s)
  Km: 95 ± 47 µM

## N=C(N)SCCCOc1oc(=O)c2cc(NC(=O)NCc3ccccc3)ccc2c1Cl [PhCH2NHCONH-CiTPrOIC]
[1]; substrate 2 Z-Phe-Arg-NHMec
  % Inhibition: 100%
  v1 (rate after inhibitor): 0 nM/min

## Cc1cc(=O)oc2cc(NC(=O)C(CCCN=C(N)N)NC(=O)C(Cc3ccccc3)NC(=O)OCc3ccccc3)ccc12 (stereo not drawn) [Z-Phe-Arg-NHMec] (Cbz-Phe-Arg-{AMC}; configuration not given here)
[8]
  Rate: 43.5 nM/min
[9]
  Rate: 24.5 nM/min
[10]
  Rate: 3.93 nM/min
[11]
  Rate: 40.6 nM/min
[12]
  Rate: 1786.9 nM/min
[13]
  Rate: 9.11 nM/min
[14]
  Rate: 18.66 nM/min
Cat fur enzyme(s); [Substrate] 0.5 μM
  Rate: 3.74 nM/min
Cat fur enzyme(s); [Substrate] 1.0 μM
  Rate: 6.99 nM/min
Cat fur enzyme(s); [Substrate] 2.0 μM
  Rate: 10.2 nM/min
Cat fur enzyme(s); [Substrate] 5 μM
  Rate: 27.3 nM/min
Cat fur enzyme(s); [Substrate] 60 μM
  Rate: 35.4 nM/min
Cat fur enzyme(s); [Substrate] 80 μM
  Rate: 32.3 nM/min
Cat fur enzyme(s); [Substrate] 100 μM
  Rate: 33.7 nM/min
Cat fur enzyme(s)
  Km: 3.2 ± 0.9 µM

## Cc1cc(=O)oc2cc(NC(=O)[C@H](CCCN=C(N)N)NC(=O)[C@@H](NC(=O)[C@H](Cc3ccccc3)NC(=O)c3ccccc3)C(C)C)ccc12 [Bz-Phe-Val-Arg-NHMec] (Bz-Phe-Val-Arg-{AMC})
[8]
  Rate: 32.1 nM/min

## CC(C)C[C@H](NC(=O)[C@H]1O[C@@H]1C(=O)O)C(=O)NCCCCN=C(N)N (relative stereo) [E64, L-trans epoxysuccinyl-leucylamido-4-guanidino-butane]
[1]; [15]
  % Inhibition: 20.4%
  v1 (rate after inhibitor): 2.005 nM/min

## Cc1cc(=O)oc2cc(NC(=O)[C@H](Cc3ccccc3)NC(=O)[C@H](C)NC(=O)[C@H](C)NC(=O)CCC(=O)O)ccc12 [Suc-Ala-Ala-Phe-NHMec] (Suc-Ala-Ala-Phe-{AMC})
[6]
  Rate: No activity
[7]
  Rate: 0.03 nM/min
